Measured values from PubChem BioAssay AID2060625 (Molecular Pharmacology Branch, DTP, NCI, 2025).

System: 186277-243-T-J2-PDC spheroids with HUVEC/MSC, viability
Test: Anticancer human tumor 186277-243-T-J2-PDC patient-derived colon adenocarcinoma cell line growth inhibition [CLK]
Details: for IC50: curve of first compound; for viability, T/C: stronger effect = lower value
Outline: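 Patient-derived tumor cells grown as complex spheroids with HUVEC endothelial cells and mesenchymal stem cells, treated with drug combinations. Concentrations descend in half-log steps from near clinical Cmax, or from 10 microM if Cmax unknown.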
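Also: compound exposure lasted seven days before readout.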
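For viability, T/C in this document: 100% = DMSO vehicle control wells.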

**Q.** Which results are given for `CC(C)CC(NC(=O)C(Cc1ccccc1)NC(=O)c1cnccn1)B(O)O` (centres undefined) + CN1CCN(c2cc(C(=O)Nc3cc4cc(-c5cnn(C)c5)ccc4cn3)ccn2)CC1?
**A.** IC50 (second compound 0.0316 µM): 4.52 nM; IC50 (second compound 0.1 µM): 2.27 nM; IC50 (second compound 0.316 µM): < 0.949 nM; IC50 (second compound 1 µM): < 0.949 nM; IC50 (second compound 3.16 µM): < 0.949 nM; IC50 (second compound 10 µM): < 0.949 nM; viability, T/C (second compound 0.0316 µM, first compound 0.000949 µM): 93%; viability, T/C (second compound 0.0316 µM, first compound 0.003 µM): 77.2%; viability, T/C (second compound 0.0316 µM, first compound 0.00949 µM): 0.25%; viability, T/C (second compound 0.0316 µM, first compound 0.03 µM): 0.9%; viability, T/C (second compound 0.0316 µM, first compound 0.0949 µM): 0.78%; viability, T/C (second compound 0.0316 µM, first compound 0.3 µM): 1.15%; viability, T/C (second compound 0.1 µM, first compound 0.000949 µM): 88.1%; viability, T/C (second compound 0.1 µM, first compound 0.003 µM): 37.7%; viability, T/C (second compound 0.1 µM, first compound 0.00949 µM): 1.84%; viability, T/C (second compound 0.1 µM, first compound 0.03 µM): 0.31%; viability, T/C (second compound 0.1 µM, first compound 0.0949 µM): 1.92%; viability, T/C (second compound 0.1 µM, first compound 0.3 µM): 0.17%; viability, T/C (second compound 0.316 µM, first compound 0.000949 µM): 26.1%; viability, T/C (second compound 0.316 µM, first compound 0.003 µM): 1.14%; viability, T/C (second compound 0.316 µM, first compound 0.00949 µM): 1.35%; viability, T/C (second compound 0.316 µM, first compound 0.03 µM): 1.4%; viability, T/C (second compound 0.316 µM, first compound 0.0949 µM): 1.62%; viability, T/C (second compound 0.316 µM, first compound 0.3 µM): 0.34%; viability, T/C (second compound 1 µM, first compound 0.000949 µM): 0.5%; viability, T/C (second compound 1 µM, first compound 0.003 µM): 0.4%; viability, T/C (second compound 1 µM, first compound 0.00949 µM): 1.57%; viability, T/C (second compound 1 µM, first compound 0.03 µM): 0.8%; viability, T/C (second compound 1 µM, first compound 0.0949 µM): 1.78%; viability, T/C (second compound 1 µM, first compound 0.3 µM): 0.17%; viability, T/C (second compound 3.16 µM, first compound 0.000949 µM): 2.83%; viability, T/C (second compound 3.16 µM, first compound 0.003 µM): 0.72%; viability, T/C (second compound 3.16 µM, first compound 0.00949 µM): 0.33%; viability, T/C (second compound 3.16 µM, first compound 0.03 µM): 1.62%; viability, T/C (second compound 3.16 µM, first compound 0.0949 µM): 1.24%; viability, T/C (second compound 3.16 µM, first compound 0.3 µM): 0.17%; viability, T/C (second compound 10 µM, first compound 0.000949 µM): 1.17%; viability, T/C (second compound 10 µM, first compound 0.003 µM): 0.46%; viability, T/C (second compound 10 µM, first compound 0.00949 µM): 0.27%; viability, T/C (second compound 10 µM, first compound 0.03 µM): 1.87%; viability, T/C (second compound 10 µM, first compound 0.0949 µM): 1.18%; viability, T/C (second compound 10 µM, first compound 0.3 µM): 0.16%

**Q.** `O=C(c1cc(Cc2n[nH]c(=O)c3ccccc23)ccc1F)N1CCN(C(=O)C2CC2)CC1` + CN1CCN(c2cc(C(=O)Nc3cc4cc(-c5cnn(C)c5)ccc4cn3)ccn2)CC1 was tested. Which IC50 (second compound 0.0316 µM) did it give?
**A.** Its IC50 is over 10000 nM.

**Q.** What about the IC50 (second compound 0.1 µM) of the same compound?
**A.** Its IC50 is over 10000 nM.

**Q.** What about the IC50 (second compound 0.316 µM) of the same compound?
**A.** The IC50 was under 31.6 nM.

**Q.** What about the IC50 (second compound 1 µM) of the same compound?
**A.** Its IC50 is under 31.6 nM.

**Q.** What about the IC50 (second compound 3.16 µM) of the same compound?
**A.** The IC50 was under 31.6 nM.

**Q.** What about the IC50 (second compound 10 µM) of the same compound?
**A.** The IC50 was under 31.6 nM.

**Q.** And the viability, T/C (second compound 0.0316 µM, first compound 0.0316 µM)?
**A.** Its viability, T/C is 95.8%.

**Q.** What about the viability, T/C (second compound 0.0316 µM, first compound 0.1 µM) of the same compound?
**A.** Its viability, T/C is 97.4%.

**Q.** What about the viability, T/C (second compound 0.0316 µM, first compound 0.316 µM) of the same compound?
**A.** Its viability, T/C is 97.2%.

**Q.** And the viability, T/C (second compound 0.0316 µM, first compound 1 µM)?
**A.** Its viability, T/C is 103%.

**Q.** And the viability, T/C (second compound 0.0316 µM, first compound 3.16 µM)?
**A.** Its viability, T/C is 102%.

**Q.** And the viability, T/C (second compound 0.0316 µM, first compound 10 µM)?
**A.** Its viability, T/C is 93.6%.

**Q.** And the viability, T/C (second compound 0.1 µM, first compound 0.0316 µM)?
**A.** The viability, T/C was 82.5%.

**Q.** And the viability, T/C (second compound 0.1 µM, first compound 0.1 µM)?
**A.** Its viability, T/C is 82.8%.

**Q.** And the viability, T/C (second compound 0.1 µM, first compound 0.316 µM)?
**A.** The viability, T/C was 82.7%.

**Q.** And the viability, T/C (second compound 0.1 µM, first compound 1 µM)?
**A.** Its viability, T/C is 73.9%.

**Q.** And the viability, T/C (second compound 0.1 µM, first compound 3.16 µM)?
**A.** Its viability, T/C is 73.2%.

**Q.** And the viability, T/C (second compound 0.1 µM, first compound 10 µM)?
**A.** The viability, T/C was 69%.

**Q.** And the viability, T/C (second compound 0.316 µM, first compound 0.0316 µM)?
**A.** The viability, T/C was 24.6%.

**Q.** What about the viability, T/C (second compound 0.316 µM, first compound 0.1 µM) of the same compound?
**A.** The viability, T/C was 25.8%.

**Q.** What about the viability, T/C (second compound 0.316 µM, first compound 0.316 µM) of the same compound?
**A.** Its viability, T/C is 23.1%.

**Q.** What about the viability, T/C (second compound 0.316 µM, first compound 1 µM) of the same compound?
**A.** Its viability, T/C is 24.8%.

**Q.** And the viability, T/C (second compound 0.316 µM, first compound 3.16 µM)?
**A.** The viability, T/C was 24.2%.

**Q.** What about the viability, T/C (second compound 0.316 µM, first compound 10 µM) of the same compound?
**A.** Its viability, T/C is 21.7%.

**Q.** What about the viability, T/C (second compound 1 µM, first compound 0.0316 µM) of the same compound?
**A.** Its viability, T/C is 0.33%.

**Q.** And the viability, T/C (second compound 1 µM, first compound 0.1 µM)?
**A.** The viability, T/C was 0.74%.

**Q.** What about the viability, T/C (second compound 1 µM, first compound 0.316 µM) of the same compound?
**A.** Its viability, T/C is 2.04%.

**Q.** What about the viability, T/C (second compound 1 µM, first compound 1 µM) of the same compound?
**A.** The viability, T/C was 0.29%.

**Q.** And the viability, T/C (second compound 1 µM, first compound 3.16 µM)?
**A.** The viability, T/C was 1.71%.

**Q.** And the viability, T/C (second compound 1 µM, first compound 10 µM)?
**A.** The viability, T/C was 0.32%.

**Q.** What about the viability, T/C (second compound 3.16 µM, first compound 0.0316 µM) of the same compound?
**A.** The viability, T/C was 2.76%.

**Q.** And the viability, T/C (second compound 3.16 µM, first compound 0.1 µM)?
**A.** Its viability, T/C is 1.64%.

**Q.** And the viability, T/C (second compound 3.16 µM, first compound 0.316 µM)?
**A.** Its viability, T/C is 1.3%.

**Q.** And the viability, T/C (second compound 3.16 µM, first compound 1 µM)?
**A.** Its viability, T/C is 1.29%.

**Q.** And the viability, T/C (second compound 3.16 µM, first compound 3.16 µM)?
**A.** Its viability, T/C is 1.16%.

**Q.** And the viability, T/C (second compound 3.16 µM, first compound 10 µM)?
**A.** Its viability, T/C is 1.05%.

**Q.** And the viability, T/C (second compound 10 µM, first compound 0.0316 µM)?
**A.** Its viability, T/C is 1.59%.

**Q.** And the viability, T/C (second compound 10 µM, first compound 0.1 µM)?
**A.** The viability, T/C was 0.89%.

**Q.** And the viability, T/C (second compound 10 µM, first compound 0.316 µM)?
**A.** Its viability, T/C is 0.83%.

**Q.** And the viability, T/C (second compound 10 µM, first compound 1 µM)?
**A.** Its viability, T/C is 0.77%.

**Q.** What about the viability, T/C (second compound 10 µM, first compound 3.16 µM) of the same compound?
**A.** The viability, T/C was 1.1%.

**Q.** What about the viability, T/C (second compound 10 µM, first compound 10 µM) of the same compound?
**A.** Its viability, T/C is 0.59%.
